# Source: US12630529B2, “GCN2 modulator compounds” (ALESTA THERAPEUTICS BV, priority 2020, dated 2026)
# What was measured:
# [1] = system: HT29 cells; experiment: Proliferation and apoptosis of colorectal cancer cells (live-cell imaging); type: cell-based; settings: 10 μM, 64 μM arginine, up to 96 hours, vs untreated cells; for rate of apoptotic cell death: YO-PRO-1 uptake
# Procedure: Proliferation and apoptosis of HT29 cells was determined in the presence of Compound 1 and Compound 2. Briefly, cells were seeded in 96-well flat bottom plates at 4,000 cells per well in 100 μL SILAC DMEM Flex media without phenol red, supplemented with 10% fetal bovine serum (FBS), 1 g/L glucose, 2 mM glutamine, 220 μM lysine, containing a physiological concentration of arginine (64 μM). After 24 hours, cells were treated with 10 μM vehicle control (Control; 0.1% DMSO), 10 μM Compound 1, or 10 μM Compound 2, together with 100 nM of fluorescent apoptosis stain (YO-PRO™-1 Iodide; Thermo Fisher) to detect apoptotic cells. Cells were placed in a live-cell imaging and analysis platform (IncuCyte ZOOM®; Essenbio) set up in a humidified incubator at 37° C. and the plates were scanned every 4 hours for up 96 hours, at 10× magnification to determine cell confluence and cell death. Experiments were performed in duplicate with 3 images collected per well and analyzed using live-cell imaging and analysis software (e.g., IncuCyte ZOOM® 2018A software; Essenbio).
# [2] = system: HT29 cells; experiment: Growth of tumor spheroids; type: cell-based; settings: 64 μM arginine, up to 120 hours, vs untreated spheroids
# Procedure: The growth of tumor spheroids was evaluated following treatment of cells with Compound 1, Compound 2 and Compound 108. Briefly, HT29 cells were seeded at 5,000 cells/well in ultra-low attachment round bottom 96-well plates, in 100 μL SILAC DMEM Flex media without phenol red, supplemented with 10% fetal bovine serum (FBS), 1 g/L glucose, 2 mM glutamine, 220 μM lysine, and 64 μM arginine. The plates were centrifuged for 10 minutes at 125×g and put in a humidified incubator at 37° C. for 3 days before the onset of the experiment to allow spheroids to form.
# Three days after seeding, 10 μM Compound 1, 10 μM Compound 2, 10 μM Compound 108 or 10 μM vehicle control (0.1% DMSO), were added together with 100 nM fluorescent apoptosis stain (e.g., YO-PRO™-1 Iodide; Thermo Fisher) to detect apoptotic cells and Nuclear-ID Red DNA Stain (1:100,000; ENZO Life Sciences) to detect live cells. Plates were placed in a live-cell imaging and analysis platform (e.g., IncuCyte ZOOM®; Essenbio) set up in a humidified incubator at 37° C. and scanned every 4 hours for up 120 hours, at 10× magnification, to determine relative spheroid size and cell death. Experiments were performed in quadruplicate and analyzed using live-cell imaging and analysis software (e.g., IncuCyte ZOOM® 2018A software; Essenbio).
# [3] = system: CHOP (DDIT3) reporter; experiment: GCN2-induction of CHOP and apoptosis in 3T3 fibroblasts with CHOP (DDIT3) reporter construct; type: cell-based, murine; settings: for GCN2 activation / GCN2-induced CHOP activation: murine 3T3 CHOP (mCherry) reporter fibroblasts, increasing concentrations, in the presence of halofuginone or histidinol; for apoptosis induced by halofuginone / late-stage apoptosis induced by histidinol: murine 3T3 WT cells; for apoptosis induced by halofuginone: co-treatment with halofuginone; for late-stage apoptosis induced by histidinol: co-treatment with histidinol
# Procedure: The CHOP construct comprised the […] (UTR) of mouse DDIT3 mRNA fused to a sequence encoding the fluorescent protein mCherry.
# Cells were seeded at 5,000 cells per well in flat bottom 96-well plates in 100 μL DMEM low glucose media without phenol red, and supplemented with 10% FBS and 2 mM glutamine. After 24 hours, the exemplary compounds, and either tunicamycin, halofuginone, or histidinol, were added together with 100 nM of fluorescent apoptosis stain (YO-PRO™-1 Iodide; Thermo Fisher) to detect apoptotic cells. Cells were placed in a live-cell imaging and analysis platform (IncuCyte ZOOM®; Essenbio) set up in a humidified incubator at 37° C. and the plates were scanned every 4 hours for up 120 hours, at 10× magnification, to determine cell confluence and cell death. Experiments were performed in duplicate with 3 images collected per well, and analyzed using live-cell imaging and analysis software (IncuCyte ZOOM® 2018A software; Essenbio).
# [4] = target: GCN2 (Homo sapiens, UniProt Q9P2K8); experiment: GCN2 activation induced by arginine starvation (Western blot); type: cell-based; design: endogenous in cells; host or cells: HT29 and HCT116; settings: HT29 and HCT116 colorectal cancer cell lines, 24 hours
# Procedure: Colorectal cancer cell lines HT29 and HCT116 were seeded at a concentration of 100×10^3 cells per well in 6 well plates, in SILAC DMEM Flex media supplemented with 10% fetal bovine serum, 1 g/L glucose, 2 mM glutamine, 800 μM lysine, and various concentrations of arginine in the absence or presence of Compound 1 and Compound 2 GCN2 inhibitors. Cells were cultured for 24 hours.
# Following 24 hours of culture, expression of phosphorylated GCN2 (P-GCN2) and alpha-actinin loading control was assessed by Western blot. Briefly, cells were washed with cold PBS and dissolved in cell lysis buffer containing 1% Triton, supplemented with protease inhibitors and phosphatase inhibitors. All lysates were freshly prepared and normalized using a BCA protein assay before addition of LDS sample buffer and denaturation by boiling the samples for 5 minutes at 95° C. Proteins were separated on 4-12% Bis-Tris protein gels in MOPS SDS buffer and electrophoresis was performed (e.g., Novex NuPAGE® Gel Electrophoresis Systems; Invitrogen). Transfer of the protein samples was performed (e.g., using the Mini Trans-Blot Cell® system; Bio-Rad) with 0.45 μM pore Nitrocellulose/Filter paper sandwiches and transfer buffer at 350 mA for 90 minutes at 4° C. Membranes were blocked for 1 hour with 4% BSA in TBS-Tween at room temperature and incubated with 1:1,000 dilutions of anti-GCN2, phospho-GCN2, α-actinin1, and/or p21 (Waf/Cip1) antibodies overnight at 4° C. Afterwards, membranes were washed 3 times with TBS-Tween and incubated with HRP-conjugated secondary antibodies at 1:20,000 dilution for 1 hour at room temperature.
# Sequence of GCN2 (Q9P2K8 whole entry): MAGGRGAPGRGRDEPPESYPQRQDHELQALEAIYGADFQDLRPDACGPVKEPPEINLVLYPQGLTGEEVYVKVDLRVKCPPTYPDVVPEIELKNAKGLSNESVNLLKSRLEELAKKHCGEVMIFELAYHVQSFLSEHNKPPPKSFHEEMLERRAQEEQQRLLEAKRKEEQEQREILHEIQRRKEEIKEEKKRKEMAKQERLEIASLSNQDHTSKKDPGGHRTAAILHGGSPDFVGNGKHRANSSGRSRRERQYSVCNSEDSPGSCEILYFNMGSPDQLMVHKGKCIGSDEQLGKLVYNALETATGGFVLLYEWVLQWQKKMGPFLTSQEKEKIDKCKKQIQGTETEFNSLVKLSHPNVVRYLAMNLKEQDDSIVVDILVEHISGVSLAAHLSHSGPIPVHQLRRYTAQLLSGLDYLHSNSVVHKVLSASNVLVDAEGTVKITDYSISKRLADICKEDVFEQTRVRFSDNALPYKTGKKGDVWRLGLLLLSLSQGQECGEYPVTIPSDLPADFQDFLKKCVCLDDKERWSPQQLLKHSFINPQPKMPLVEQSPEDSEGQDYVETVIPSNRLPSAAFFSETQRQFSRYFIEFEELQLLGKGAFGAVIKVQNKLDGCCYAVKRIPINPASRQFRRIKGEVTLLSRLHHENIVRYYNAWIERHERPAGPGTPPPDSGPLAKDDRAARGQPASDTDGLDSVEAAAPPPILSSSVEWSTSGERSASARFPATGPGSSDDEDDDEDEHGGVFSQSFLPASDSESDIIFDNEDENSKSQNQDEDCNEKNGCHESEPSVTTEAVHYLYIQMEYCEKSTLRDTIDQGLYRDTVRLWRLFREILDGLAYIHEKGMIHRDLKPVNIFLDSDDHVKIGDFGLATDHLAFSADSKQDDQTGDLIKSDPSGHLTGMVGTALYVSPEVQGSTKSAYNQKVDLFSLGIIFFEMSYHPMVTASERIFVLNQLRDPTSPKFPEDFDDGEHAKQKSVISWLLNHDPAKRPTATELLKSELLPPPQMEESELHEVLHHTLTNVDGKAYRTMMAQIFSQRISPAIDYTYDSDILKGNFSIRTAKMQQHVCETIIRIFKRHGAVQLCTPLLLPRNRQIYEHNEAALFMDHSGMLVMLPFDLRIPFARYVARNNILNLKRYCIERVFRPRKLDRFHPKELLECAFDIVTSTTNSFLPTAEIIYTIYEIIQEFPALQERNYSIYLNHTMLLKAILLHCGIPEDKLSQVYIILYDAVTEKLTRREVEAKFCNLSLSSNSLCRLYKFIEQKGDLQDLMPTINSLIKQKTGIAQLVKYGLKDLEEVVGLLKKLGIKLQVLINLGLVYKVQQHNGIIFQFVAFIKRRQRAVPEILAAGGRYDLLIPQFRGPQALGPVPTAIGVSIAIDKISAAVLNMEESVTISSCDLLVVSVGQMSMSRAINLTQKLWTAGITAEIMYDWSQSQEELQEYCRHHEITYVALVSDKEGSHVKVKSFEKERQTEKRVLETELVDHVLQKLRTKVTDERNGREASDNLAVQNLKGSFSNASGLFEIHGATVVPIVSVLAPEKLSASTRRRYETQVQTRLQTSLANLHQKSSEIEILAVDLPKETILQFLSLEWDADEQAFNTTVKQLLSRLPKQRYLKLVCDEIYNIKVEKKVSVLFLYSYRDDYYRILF
SMILES,rate of apoptotic cell death [1],cell density / confluence [1],spheroid size and viability [2],GCN2 activation / GCN2-induced CHOP activation [3],apoptosis induced by halofuginone [3],late-stage apoptosis induced by histidinol [3],activation of GCN2 (P-GCN2 expression) upon arginine depletion [4],p21 expression [4]
Nc1ncc2cc(-c3c(F)ccc(NS(=O)(=O)c4cc(Cl)ccc4Cl)c3F)ccc2n1 [Compound 2],increased rate of apoptotic cell death,grew less dense,relative reduction in spheroid size and viability in a dose-dependent manner,reduced GCN2 activation,effectively inhibited apoptosis,increased late-stage apoptosis,prevented the activation of GCN2 upon arginine depletion,p21 expression is induced
COc1ncc(Cl)cc1S(=O)(=O)Nc1ccc(F)c(-c2ccc3nc(N)ncc3c2)c1F [Compound 1],increased rate of apoptotic cell death,grew less dense,relative reduction in spheroid size and viability in a dose-dependent manner,reduced GCN2 activation,effectively inhibited apoptosis,increased late-stage apoptosis,prevented the activation of GCN2 upon arginine depletion,p21 expression is induced
